Laboratory results reported in patent publication US10781208B2, “5,6-dihydro-11H-indolo[2,3-B]quinolin-11-ones as alk inhibitors” (THE REGENTS OF THE UNIVERSITY OF MICHIGAN, priority 2016, dated 2020).

Tests used:
Kappas-299 (NPM-ALK) = experiment: Cell growth inhibition assay (WST-8), Kappas-299; type: cell-based; conditions: read-out: Kappas-299 (nM) (NPM-ALK), 50% of cell growth inhibition (IC50), Kappas-299 cells, WST-8, versus DMSO control
Method: (§1) All cell lines were cultured as recommended. For cell growth inhibition assay, cells were treated with different concentrations of the tested compounds, diluted from stock to culture media containing a 0.2% DMSO as the final concentration. Cell viability was determined using the WST-8 cell proliferation assay kit (Dojindo Molecular Technologies) according to manufacture's instructions. Three independent experiments in triplicates were performed.

H3122 (EML4-ALK) = experiment: Cell growth inhibition assay (WST-8), H3122; type: cell-based; conditions: Homo sapiens, NCI-H3122, read-out: H3122 (nM) (EML4-ALK), 50% of cell growth inhibition (IC50); H3122 cells, WST-8, versus DMSO control
Method: as §1

wild-type human ALK = biological target: T1, wild-type human ALK (Homo sapiens, UniProt Q9UM73); experiment: ALK kinase activity, Lance TR-FRET assay (wild-type); type: biochemical; conditions: Table 2, ALK enzyme; read-out: Inhibitory activity (nM) ALK
T1 construct: The cytoplasmic domain (amino acid 1058-1620) of wild-type human ALK protein; GST (N); purchased Carna Biosciences, Inc (Japan)
T1 sequence (Q9UM73 1058-1620): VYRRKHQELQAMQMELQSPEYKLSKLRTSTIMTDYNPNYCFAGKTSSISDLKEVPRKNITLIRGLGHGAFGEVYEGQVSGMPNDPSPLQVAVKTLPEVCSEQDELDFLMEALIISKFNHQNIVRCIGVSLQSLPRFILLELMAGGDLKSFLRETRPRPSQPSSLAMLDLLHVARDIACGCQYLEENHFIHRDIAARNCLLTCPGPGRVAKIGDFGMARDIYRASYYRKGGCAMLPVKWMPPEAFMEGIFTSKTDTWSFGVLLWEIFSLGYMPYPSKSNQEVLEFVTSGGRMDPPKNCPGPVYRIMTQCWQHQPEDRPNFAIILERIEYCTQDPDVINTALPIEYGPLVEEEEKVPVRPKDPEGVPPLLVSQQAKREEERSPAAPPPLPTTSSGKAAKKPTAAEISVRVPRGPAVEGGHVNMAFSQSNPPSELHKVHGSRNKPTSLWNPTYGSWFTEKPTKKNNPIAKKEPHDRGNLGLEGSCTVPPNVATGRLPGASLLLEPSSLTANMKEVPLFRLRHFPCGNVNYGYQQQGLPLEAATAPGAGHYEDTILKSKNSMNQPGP
Method: Mutated ALK proteins were expressed in SF9 insect cells with N-terminal tags cleaved after purification. Kinase activities of all enzymes were assessed using a Lance TR-FRET assay kit from Perkin Elmer Life Sciences (Waltham, Mass.). 2.5 μL of compound solution and 5 μL of protein solution were added into a black low volume 384 well microtiter plate which was incubated for 30 minutes with gentle shaking at room temperature, followed by adding 2.5 μL of fluorescently labeled peptide substrate and ATP mixture solution. The kinase reaction was performed in 50 mM HEPES (pH 7.5) with 1 mM EGTA, 1 mM MgCl2, and 2 mM DTT, 0.01% Tween-20 added right before the assay. […] The final mixture was incubated in the dark for 1 hour before the plate was read on a Tecan Infinite M-1000 multi-mode plate reader (Tecan, Durham N.C.) with an excitation wavelength of 320 nm.

KARPAS 299 xenograft = KARPAS 299 xenograft model in mice, in vivo antitumor efficacy; conditions: SCID mice, given orally, once daily for 3 weeks, FIG. 1
Method: Tumor cells for xenografts were washed twice in PBS, and re-suspended in an ice cold mixture of 1:1 PBS and Matrigel (BD Biosciences, Invitrogen Corp.) for a final Matrigel protein concentration of 5 mg/ml. Cells at 5×10^6 cells in 0.1 ml were injected subcutaneously (s.c.) into the flank region of each mouse.
The size of tumors growing in the mice was measured in two dimensions using calipers. Tumor volume (mm^3)=(A×B^2)/2 where A and B are the tumor length and width (in mm), respectively. During treatment, tumor volume and body weight were measured three times a week. After the treatment was stopped, tumor volume and body weight was measured at least once a week.
Tumors were not allowed to exceed 10% of the animal's total body weight. If an animal had two or more tumors the total weight of all tumors were not allowed to exceed 10% of the animal's total body weight. At the end of the experimental period or when tumor size approached 10% of the total body weight, the animal was euthanized.
Mice with tumors within acceptable size range were randomized into treatment groups of 7 mice. Drug was given orally, once daily for 3 weeks. The Control group received vehicle alone.

With `CCN1[C@H](C)CN(c2c(OC)cc3c(=O)c4c5ccc(C#N)cc5[nH]c4n(C(C)C)c3c2F)C[C@@H]1C` [Cpd. No. 9, 3-((3R,5S)-4-ethyl-3,5-dimethylpiperazin-1-yl)-4-fluoro-5-isopropyl-2-methoxy-11-oxo-6,11-dihydro-5H-indolo[2,3-b]quinoline-8-carbonitrile] the IC50 (Kappas-299 (NPM-ALK)) was 85 nM and the IC50 (H3122 (EML4-ALK)) was 27 nM.

Molecule `COc1cc2c(=O)c3c4ccc(C#N)cc4[nH]c3n(C(C)C)c2c(F)c1C1CC2CCC(C1)N2C` (stereo not shown) [Cpd. No. 10, 4-fluoro-5-isopropyl-2-methoxy-3-(8-methyl-8-azabicyclo[3.2.1]octan-3-yl)-11-oxo-6,11-dihydro-5H-indolo[2,3-b]quinoline-8-carbonitrile] has an IC50 (Kappas-299 (NPM-ALK)) of 69 nM and an IC50 (wild-type human ALK) of 0.37 nM.

With `COc1cc2c(=O)c3c4ccc(C#N)cc4[nH]c3n(C(C)C)c2c(F)c1C1=CC(C)(C)N(C)C(C)(C)C1` [Cpd. No. 12, 4-fluoro-5-isopropyl-2-methoxy-11-oxo-3-(1,2,2,6,6-pentamethyl-1,2,3,6-tetrahydropyridin-4-yl)-6,11-dihydro-5H-indolo[2,3-b]quinoline-8-carbonitrile] the IC50 (Kappas-299 (NPM-ALK)) was 9.7 nM, the IC50 (wild-type human ALK) was 0.24 nM and the “tumor growth in the KARPAS 299 xenograft model” value (from here on “tumor growth”) (KARPAS 299 xenograft) was “inhibit tumor growth”.

Molecule `COc1cc2c(=O)c3c4ccc(C#N)cc4[nH]c3n(C(C)C)c2c(F)c1C1=CCNCC1` [Cpd. No. 16, 4-fluoro-5-isopropyl-2-methoxy-11-oxo-3-(1,2,3,6-tetrahydropyridin-4-yl)-6,11-dihydro-5H-indolo[2,3-b]quinoline-8-carbonitrile] has an IC50 (Kappas-299 (NPM-ALK)) of 167 nM and an IC50 (wild-type human ALK) of 0.85 nM.

`COc1cc2c(=O)c3c4ccc(C#N)cc4[nH]c3n(C(C)C)c2c(F)c1C1=CCN(C)CC1` [Cpd. No. 17, 4-fluoro-5-isopropyl-2-methoxy-3-(1-methyl-1,2,3,6-tetrahydropyridin-4-yl)-11-oxo-6,11-dihydro-5H-indolo[2,3-b]quinoline-8-carbonitrile] showed an IC50 (Kappas-299 (NPM-ALK)) of 60 nM and an IC50 (wild-type human ALK) of 0.75 nM.

`COc1cc2c(=O)c3c4ccc(C#N)cc4[nH]c3n(C(C)C)c2c(F)c1C1=C[C@@H](C)N[C@@H](C)C1` [Cpd. No. 18, 3-((2S,6R)-2,6-dimethyl-1,2,3,6-tetrahydropyridin-4-yl)-4-fluoro-5-isopropyl-2-methoxy-11-oxo-6,11-dihydro-5H-indolo[2,3-b]quinoline-8-carbonitrile] was tested, and the IC50 (Kappas-299 (NPM-ALK)) was 16 nM, the IC50 (wild-type human ALK) was 0.5 nM and the IC50 (H3122 (EML4-ALK)) was 18 nM.

With `COc1cc2c(=O)c3c4ccc(C#N)cc4[nH]c3n(C(C)C)c2c(F)c1C1=C[C@@H](C)N(C)[C@@H](C)C1` [Cpd. No. 19, 4-fluoro-5-isopropyl-2-methoxy-11-oxo-3-((2S,6R)-1,2,6-trimethyl-1,2,3,6-tetrahydropyridin-4-yl)-6,11-dihydro-5H-indolo[2,3-b]quinoline-8-carbonitrile] the IC50 (Kappas-299 (NPM-ALK)) was 16 nM, the IC50 (wild-type human ALK) was 0.36 nM and the “tumor growth” value (KARPAS 299 xenograft) was “inhibit tumor growth”. The IC50 (H3122 (EML4-ALK)) was 20 nM.

In the case of `COc1cc2c(=O)c3c4ccc(C#N)cc4[nH]c3n(C(C)C)c2c(F)c1C1=CCN(C2CCOCC2)CC1` [Cpd. No. 20, 4-fluoro-5-isopropyl-2-methoxy-11-oxo-3-(1-(tetrahydro-2H-pyran-4-yl)-1,2,3,6-tetrahydropyridin-4-yl)-6,11-dihydro-5H-indolo[2,3-b]quinoline-8-carbonitrile], the IC50 (Kappas-299 (NPM-ALK)) is reported as 38 nM, the IC50 (wild-type human ALK) is reported as 1.4 nM and the “tumor growth” value (KARPAS 299 xenograft) is reported as “inhibit tumor growth”. The IC50 (H3122 (EML4-ALK)) was 30 nM.
